The target in the assay is T1, hM5 (Homo sapiens, UniProt P08912).
T1 construct: expressed in transfected cells
T1 sequence (P08912 1-532): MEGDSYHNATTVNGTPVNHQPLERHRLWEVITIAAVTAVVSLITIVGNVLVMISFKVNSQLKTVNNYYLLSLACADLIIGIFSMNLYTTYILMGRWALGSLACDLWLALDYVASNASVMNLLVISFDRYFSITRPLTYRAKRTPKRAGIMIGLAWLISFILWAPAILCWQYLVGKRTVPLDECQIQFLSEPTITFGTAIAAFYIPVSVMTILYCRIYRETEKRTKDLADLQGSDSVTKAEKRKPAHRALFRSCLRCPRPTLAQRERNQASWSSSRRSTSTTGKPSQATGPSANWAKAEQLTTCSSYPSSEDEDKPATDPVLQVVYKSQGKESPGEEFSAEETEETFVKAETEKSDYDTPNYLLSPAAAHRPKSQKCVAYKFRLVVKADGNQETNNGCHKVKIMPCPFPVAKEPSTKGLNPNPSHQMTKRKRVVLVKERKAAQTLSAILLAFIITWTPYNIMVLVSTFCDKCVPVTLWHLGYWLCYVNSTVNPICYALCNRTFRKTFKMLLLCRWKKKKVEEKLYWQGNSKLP
The experiment in a line: Calcium mobilization concentration-response (IC50 vs EC80 acetylcholine), CHO hM5. Format: cell-based. Particulars: CELL LINE hM5, read-out: IC50. The gist of the method: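 CHO cells stably expressing hM5, dye-loaded, in HBSS/20 mM HEPES/2.5 mM probenecid, pH 7.4. Compounds were pre-incubated 140 s before an EC80 acetylcholine challenge, with calcium flux read kinetically.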

Where [1] appears, read: calcium mobilization, EC80 acetylcholine addition.

Like-named read-outs stand apart in the source and are kept apart here.

In the case of `[2H]C1([2H])Oc2cc(C)c(C3CCN(S(=O)(=O)c4cnc(C)n4C)CC3)cc2OC1([2H])[2H]` [Compound 391, 1-((1,2-dimethyl-1H-imidazol-5-yl)sulfonyl)-4-(7-methyl-2,3-dihydrobenzo[b][1,4]dioxin-6-yl-2,2,3,3-d4)piperidine], under setting [1], the IC50 turned out to be 636 nM.

Consider `Cc1ncc(S(=O)(=O)N2CCC(c3cc(F)c4ncnn4c3)CC2)n1C` [Compound 467, 6-(1-((1,2-dimethyl-1H-imidazol-5-yl)sulfonyl)piperidin-4-yl)-8-fluoro-[1,2,4]triazolo[1,5-a]pyridine], for which the IC50 (vs EC80 acetylcholine) is 4140 nM.

Turning to `O=S(=O)(c1cnc2n1CCC2)N1CCC(c2cn3ncnc3cc2F)CC1` [Compound 233, 6-(1-((6,7-dihydro-5H-pyrrolo[1,2-a]imidazol-3-yl)sulfonyl)piperidin-4-yl)-7-fluoro-[1,2,4]triazolo[1,5-a]pyridine], the IC50 under setting [1] was more than 10000 nM.

Turning to `Cc1cc2nccn2nc1C1CCN(S(=O)(=O)c2cccnc2)CC1` [Compound 53, 7-methyl-6-(1-(pyridin-3-ylsulfonyl)piperidin-4-yl)imidazo[1,2-b]pyridazine], under setting [1], the concentration for half-maximal inhibition (IC50) is more than 10000 nM.

In the case of `O=S(=O)(c1cnn2ccccc12)N1CCC(c2cn3ncnc3cc2F)CC1` [Compound 521, 7-fluoro-6-(1-(pyrazolo[1,5-a]pyridin-3-ylsulfonyl)piperidin-4-yl)-[1,2,4]triazolo[1,5-a]pyridine], the IC50 (vs EC80 acetylcholine) turned out to be 169 nM.

Take `Cn1ncc(S(=O)(=O)N2CCC(c3ccc4ncnn4c3)CC2)c1CC#N` [Compound 433, 2-(4-((4-([1,2,4]triazolo[1,5-a]pyridin-6-yl)piperidin-1-yl)sulfonyl)-1-methyl-1-pyrazol-5-yl)acetonitrile]: the IC50 (vs EC80 acetylcholine) is 3020 nM.

For the compound `Cc1ncc(S(=O)(=O)N2CCC(c3nn4ncnc4cc3C)CC2)s1` [Compound 214, 2-methyl-5-((4-(7-methyl-[1,2,4]triazolo[1,5-b]pyridazin-6-yl)piperidin-1-yl)sulfonyl)thiazole], the IC50 under setting [1] was more than 10000 nM.

Regarding `O=S(=O)(c1cnc(Cl)s1)N1CCC(c2cn3ncnc3cc2C(F)(F)F)CC1` [Compound 519, 2-chloro-5-((4-(7-(trifluoromethyl)-[1,2,4]triazolo[1,5-a]pyridin-6-yl)piperidin-1-yl)sulfonyl)thiazole], for the setting “vs EC80 acetylcholine”, the IC50 is 1590 nM.

Consider `Cc1cc2nccn2cc1C1CCN(S(=O)(=O)c2cc3c(cc2F)OCC3)CC1` [Compound 67, 6-(1-((6-fluoro-2,3-dihydrobenzofuran-5-yl)sulfonyl)piperidin-4-yl)-7-methylimidazo[1,2-a]pyridine], for which the IC50 under setting [1] came to 2600 nM.

Turning to `Cn1cnnc1S(=O)(=O)N1CCC(c2cn3ncnc3cc2C(F)(F)F)CC1` [Compound 520, 6-(1-((4-methyl-4H-1,2,4-triazol-3-yl)sulfonyl)piperidin-4-yl)-7-(trifluoromethyl)-[1,2,4]triazolo[1,5-a]pyridine], the concentration for half-maximal inhibition (IC50) (vs EC80 acetylcholine) was more than 10000 nM.

As to `[2H]C([2H])([2H])n1nc(Cl)c(S(=O)(=O)N2CCC(c3cn4ncnc4c(F)c3C)CC2)c1C` [Compound 319, 6-(1-((3-chloro-5-methyl-1-(methyl-d3)-1H-pyrazol-4-yl)sulfonyl)piperidin-4-yl)-8-fluoro-7-methyl-[1,2,4]triazolo[1,5-a]pyridine], under setting [1], the half-inhibitory concentration (IC50) came out at 12 nM.

As to `CCn1ncc(S(=O)(=O)N2CCC(c3cn4ncnc4cc3C)CC2)c1C1CC1` [Compound 133, 6-(1-((5-cyclopropyl-1-ethyl-1H-pyrazol-4-yl)sulfonyl)piperidin-4-yl)-7-methyl-[1,2,4]triazolo[1,5-a]pyridine], the half-inhibitory concentration (IC50) under setting [1] is more than 10000 nM.

Consider `COc1cc2ncnn2cc1C1CCN(S(=O)(=O)c2cnn3c2CCC3)CC1` [Compound 263, 6-(1-((5,6-dihydro-4H-pyrrolo[1,2-b]pyrazol-3-yl)sulfonyl)piperidin-4-yl)-7-methoxy-[1,2,4]triazolo[1,5-a]pyridine], for which, under setting [1], the IC50 turned out to be 1400 nM.

As for `Cc1nc2cc(C)c(C3CCN(S(=O)(=O)c4ccc5ncsc5c4)CC3)cn2n1` [Compound 78, 6-((4-(2,7-dimethyl-[1,2,4]triazolo[1,5-a]pyridin-6-yl)piperidin-1-yl)sulfonyl)benzo[d]thiazole], the IC50 under setting [1] is more than 10000 nM.

`Cc1cc2ncnn2cc1[C@@H]1CCN(S(=O)(=O)c2cnn3c2CCCC3)C[C@H]1O` (racemic) [Compound 270, (rac)-trans-4-(7-methyl-[1,2,4]triazolo[1,5-a]pyridin-6-yl)-1-((4,5,6,7-tetrahydropyrazolo[1,5-a]pyridin-3-yl)sulfonyl)piperidin-3-ol]: the IC50 under setting [1] worked out at 105 nM.

As for `Cc1cc2ncnn2cc1C1=C(C#N)CN(S(=O)(=O)c2cnn(C)c2C)CC1` [Compound 468, 1-((1,5-dimethyl-1H-pyrazol-4-yl)sulfonyl)-4-(7-methyl-[1,2,4]triazolo[1,5-a]pyridin-6-yl)-1,2,5,6-tetrahydropyridine-3-carbonitrile], the IC50 (vs EC80 acetylcholine) was 1630 nM.

As to `Cc1cc2ncnn2cc1C1CCN(S(=O)(=O)c2cnn3cccnc23)CC1` [Compound 442, 7-methyl-6-(1-(pyrazolo[1,5-a]pyrimidin-3-ylsulfonyl)piperidin-4-yl)-[1,2,4]triazolo[1,5-a]pyridine], under “vs EC80 acetylcholine”, the IC50 turned out to be 175 nM.

`[2H]C1([2H])CC(c2cn3ncnc3c(F)c2C)CC([2H])([2H])N1S(=O)(=O)c1cnn(C)c1C(F)F` [Compound 474, 6-(1-((5-(Difluoromethyl)-1-methyl-1H-pyrazol-4-yl)sulfonyl)piperidin-4-yl-2,2,6,6-d4)-8-fluoro-7-methyl-[1,2,4]triazolo[1,5-a]pyridine]: the concentration for half-maximal inhibition (IC50) (vs EC80 acetylcholine) was 11 nM.

With `[2H]C1([2H])CC(c2cn3ncnc3c(F)c2C)CC([2H])([2H])N1S(=O)(=O)c1cc(C)ns1` [Compound 527, 5-((4-(8-fluoro-7-methyl-[1,2,4]triazolo[1,5-a]pyridin-6-yl)piperidin-1-yl-2,2,6,6-d4)sulfonyl)-3-methylisothiazole], the 50% inhibitory concentration (IC50) (vs EC80 acetylcholine) amounted to 58 nM.

Regarding `O=S(=O)(c1cnc2n1CCCC2)N1CCC(c2cn3ncnc3cc2F)CC1` [Compound 326, 7-fluoro-6-(1-((5,6,7,8-tetrahydroimidazo[1,2-a]pyridin-3-yl)sulfonyl)piperidin-4-yl)-[1,2,4]triazolo[1,5-a]pyridine], the half-inhibitory concentration (IC50) under setting [1] was determined as 99 nM.

With `Cc1cc(C(F)(F)F)ncc1C1CCN(S(=O)(=O)c2cnn(C)c2Cl)CC1` [Compound 395, 5-(1-((5-chloro-1-methyl-1H-pyrazol-4-yl)sulfonyl)piperidin-4-yl)-4-methyl-2-(triflu0romethyl)pyridine], the IC50 under setting [1] was determined as 1290 nM.

Turning to `Cc1cc(S(=O)(=O)N2CCC(c3cn4ncnc4cc3F)CC2)sn1` [Compound 500, 5-((4-(7-fluoro-[1,2,4]triazolo[1,5-a]pyridin-6-yl)piperidin-1-yl)sulfonyl)-3-methylisothiazole], the 50% inhibitory concentration (IC50) (vs EC80 acetylcholine) turned out to be 295 nM.

In the case of `[2H]C([2H])([2H])Oc1c(S(=O)(=O)N2CCC(c3cn4ncnc4cc3C)CC2)cnn1C` [Compound 612, 6-(1-((5-(methoxy-d3)-1-methyl-1H-pyrazol-4-yl)sulfonyl)piperidin-4-yl)-7-methyl-[1,2,4]triazolo[1,5-a]pyridine], for the setting “vs EC80 acetylcholine”, the half-inhibitory concentration (IC50) came out at 18 nM.

Regarding `Cn1ncc(S(=O)(=O)N2CCC(c3cn4ncnc4cc3C(F)F)CC2)c1C#N` [Compound 482, 4-((4-(7-(difluoromethyl)-[1,2,4]triazolo[1,5-a]pyridin-6-yl)piperidin-1-yl)sulfonyl)-1-methyl-1H-pyrazole-5-carbonitrile], the half-inhibitory concentration (IC50) (vs EC80 acetylcholine) was 61 nM.

On to `O=S(=O)(c1cnn2c1CCCC2)N1CCC(c2cn3ncnc3cc2Cl)CC1` [Compound 283, 7-chloro-6-(1-((4,5,6,7-tetrahydropyrazolo[1,5-a]pyridin-3-yl)sulfonyl)piperidin-4-yl)-[1,2,4]triazolo[1,5-a]pyridine], for which, under setting [1], the concentration for half-maximal inhibition (IC50) turned out to be 7.3 nM.

For the compound `COc1c(S(=O)(=O)N2CCC(c3cn4ncnc4cc3F)CC2)cnn1C` [Compound 574, 7-fluoro-6-(1-((5-methoxy-1-methyl-1H-pyrazol-4-yl)sulfonyl)piperidin-4-yl)-[1,2,4]triazolo[1,5-a]pyridine], the 50% inhibitory concentration (IC50) (vs EC80 acetylcholine) came out at 137 nM.

With `Cc1cc2nccnc2cc1C1CCN(S(=O)(=O)c2cnn3c2OCCC3)CC1` [Compound 426, 3-((4-(7-methylquinoxalin-6-yl)piperidin-1-yl)sulfonyl)-6,7-dihydro-5H-pyrazolo[5,1-b][1,3]oxazine], the IC50 (vs EC80 acetylcholine) was determined as 26 nM.

For `O=S(=O)(c1cnc2n1CCC2)N1CC=C(c2cc3ncnn3cc2Cl)CC1` [Compound 206, 6-chloro-7-(1-((6,7-dihydro-5H-pyrrolo[1,2-a]imidazol-3-yl)sulfonyl)-1,2,3,6-tetrahydropyridin-4-yl)-[1,2,4]triazolo[1,5-a]pyridine], the IC50 under setting [1] was more than 10000 nM.

Regarding `Cc1c(C2CCN(S(=O)(=O)c3cnc4sccn34)CC2)cn2ncnc2c1F` [Compound 533, 5-((4-(8-fluoro-7-methyl-[1,2,4]triazolo[1,5-a]pyridin-6-yl)piperidin-1-yl)sulfonyl)imidazo[2,1-b]thiazole], the IC50 (vs EC80 acetylcholine) is 9 nM.

Regarding `Cc1cc(C#N)cnc1C1CCN(S(=O)(=O)c2ccc3c(c2)CCO3)CC1` [Compound 218, 6-(1-((2,3-dihydrobenzofuran-5-yl)sulfonyl)piperidin-4-yl)-5-methylnicotinonitrile], under setting [1], the IC50 is more than 10000 nM.
